From BindingDB's records for doi:10.1016/s0024-3205(97)00885-0 (Eli Lilly, 1997)

Experiments:
[1] = molecular target: 5-hydroxytryptamine receptor 1D (Homo sapiens, UniProt P28221)
Histamine H1 receptor = Histamine H1 receptor (Rattus norvegicus, UniProt P31390)
[2] = molecular target: T1, Alpha-2C adrenergic receptor (Rattus norvegicus, UniProt P22086)
T1 sequence (P22086 whole entry): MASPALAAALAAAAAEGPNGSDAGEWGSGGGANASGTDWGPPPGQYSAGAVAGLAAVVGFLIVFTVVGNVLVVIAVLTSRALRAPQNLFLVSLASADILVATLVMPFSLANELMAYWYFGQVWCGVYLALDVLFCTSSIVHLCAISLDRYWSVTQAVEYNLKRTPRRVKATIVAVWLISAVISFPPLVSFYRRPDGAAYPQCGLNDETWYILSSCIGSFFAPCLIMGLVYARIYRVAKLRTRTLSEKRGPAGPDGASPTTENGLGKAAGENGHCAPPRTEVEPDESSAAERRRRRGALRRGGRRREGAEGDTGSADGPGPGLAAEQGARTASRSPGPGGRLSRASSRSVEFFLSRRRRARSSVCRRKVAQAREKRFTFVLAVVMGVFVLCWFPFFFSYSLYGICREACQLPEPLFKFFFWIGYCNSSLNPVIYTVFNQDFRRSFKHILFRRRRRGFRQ

[3] = molecular target: Beta-2 adrenergic receptor (Rattus norvegicus, UniProt P10608)
Sequence of Beta-2 adrenergic receptor (P10608 whole entry): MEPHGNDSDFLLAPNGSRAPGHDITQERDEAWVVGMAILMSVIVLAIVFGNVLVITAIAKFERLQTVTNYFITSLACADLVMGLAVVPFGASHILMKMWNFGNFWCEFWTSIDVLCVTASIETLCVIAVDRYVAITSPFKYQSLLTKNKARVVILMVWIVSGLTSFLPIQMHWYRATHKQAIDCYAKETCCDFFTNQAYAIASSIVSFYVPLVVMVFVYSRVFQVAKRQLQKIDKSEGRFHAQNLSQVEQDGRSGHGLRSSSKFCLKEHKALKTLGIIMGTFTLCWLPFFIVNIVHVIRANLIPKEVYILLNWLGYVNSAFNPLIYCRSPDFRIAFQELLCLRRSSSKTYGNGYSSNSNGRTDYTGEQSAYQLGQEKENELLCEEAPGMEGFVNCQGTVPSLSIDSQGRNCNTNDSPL

[4] = molecular target: T2, Alpha-1A adrenergic receptor (Rattus norvegicus, UniProt P43140)
T2 sequence (P43140 whole entry): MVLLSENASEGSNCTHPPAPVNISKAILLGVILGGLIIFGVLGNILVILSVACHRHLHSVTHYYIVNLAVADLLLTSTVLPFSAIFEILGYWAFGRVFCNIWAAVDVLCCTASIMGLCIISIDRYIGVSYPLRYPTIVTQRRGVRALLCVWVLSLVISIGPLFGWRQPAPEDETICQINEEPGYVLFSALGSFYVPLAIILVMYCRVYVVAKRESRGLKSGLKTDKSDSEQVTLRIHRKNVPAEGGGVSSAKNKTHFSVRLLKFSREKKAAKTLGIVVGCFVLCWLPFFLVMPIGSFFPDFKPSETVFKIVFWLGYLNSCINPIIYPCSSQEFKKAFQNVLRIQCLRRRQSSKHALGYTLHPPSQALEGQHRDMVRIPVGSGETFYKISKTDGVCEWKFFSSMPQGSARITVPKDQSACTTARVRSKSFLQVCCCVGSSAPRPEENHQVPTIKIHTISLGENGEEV

[5] = molecular target: T3, 5-hydroxytryptamine receptor 1F (Homo sapiens, UniProt P30939)
T3 sequence (P30939 whole entry): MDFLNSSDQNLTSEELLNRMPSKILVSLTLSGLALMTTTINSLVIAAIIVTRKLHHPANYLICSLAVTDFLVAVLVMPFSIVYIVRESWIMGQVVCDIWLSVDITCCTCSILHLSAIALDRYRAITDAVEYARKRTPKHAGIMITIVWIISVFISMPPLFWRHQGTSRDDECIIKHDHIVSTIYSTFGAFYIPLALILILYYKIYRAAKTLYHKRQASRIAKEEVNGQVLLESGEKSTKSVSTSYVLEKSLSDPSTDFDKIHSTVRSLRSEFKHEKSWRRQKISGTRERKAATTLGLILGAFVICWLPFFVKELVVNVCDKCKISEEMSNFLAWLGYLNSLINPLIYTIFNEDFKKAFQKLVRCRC

[6] = molecular target: Gamma-aminobutyric acid receptor subunit alpha-1 (Rattus norvegicus, UniProt P62813)
Sequence of Gamma-aminobutyric acid receptor subunit alpha-1 (P62813 whole entry): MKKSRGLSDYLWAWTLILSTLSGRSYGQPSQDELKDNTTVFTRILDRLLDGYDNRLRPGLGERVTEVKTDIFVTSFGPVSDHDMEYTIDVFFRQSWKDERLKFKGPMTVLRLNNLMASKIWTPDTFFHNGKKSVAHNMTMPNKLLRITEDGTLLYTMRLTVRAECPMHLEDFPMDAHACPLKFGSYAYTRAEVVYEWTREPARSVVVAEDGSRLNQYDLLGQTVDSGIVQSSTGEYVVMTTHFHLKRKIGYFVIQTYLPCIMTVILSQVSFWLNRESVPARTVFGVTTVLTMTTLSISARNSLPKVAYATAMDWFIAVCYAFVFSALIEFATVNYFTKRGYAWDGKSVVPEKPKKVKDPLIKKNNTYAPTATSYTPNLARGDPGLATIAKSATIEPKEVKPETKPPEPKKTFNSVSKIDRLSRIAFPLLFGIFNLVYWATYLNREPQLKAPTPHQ

D(1A) dopamine receptor = D(1A) dopamine receptor (Rattus norvegicus, UniProt P18901)
Sequence of D(1A) dopamine receptor (P18901 whole entry): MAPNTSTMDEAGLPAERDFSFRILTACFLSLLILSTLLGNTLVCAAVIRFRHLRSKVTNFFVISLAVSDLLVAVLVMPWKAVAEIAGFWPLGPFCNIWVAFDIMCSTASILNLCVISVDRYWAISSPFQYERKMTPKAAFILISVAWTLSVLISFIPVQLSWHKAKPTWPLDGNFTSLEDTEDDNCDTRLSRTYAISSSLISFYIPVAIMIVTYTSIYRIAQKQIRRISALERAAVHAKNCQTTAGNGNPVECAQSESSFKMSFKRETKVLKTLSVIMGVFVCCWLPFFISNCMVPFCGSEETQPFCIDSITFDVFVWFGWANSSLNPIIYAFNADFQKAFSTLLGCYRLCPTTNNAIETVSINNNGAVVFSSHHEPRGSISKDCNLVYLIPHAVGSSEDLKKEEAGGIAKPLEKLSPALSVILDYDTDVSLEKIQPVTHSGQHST

[7] = molecular target: 5-hydroxytryptamine receptor 7 (Homo sapiens, UniProt P34969)
Sequence of 5-hydroxytryptamine receptor 7 (P34969 whole entry): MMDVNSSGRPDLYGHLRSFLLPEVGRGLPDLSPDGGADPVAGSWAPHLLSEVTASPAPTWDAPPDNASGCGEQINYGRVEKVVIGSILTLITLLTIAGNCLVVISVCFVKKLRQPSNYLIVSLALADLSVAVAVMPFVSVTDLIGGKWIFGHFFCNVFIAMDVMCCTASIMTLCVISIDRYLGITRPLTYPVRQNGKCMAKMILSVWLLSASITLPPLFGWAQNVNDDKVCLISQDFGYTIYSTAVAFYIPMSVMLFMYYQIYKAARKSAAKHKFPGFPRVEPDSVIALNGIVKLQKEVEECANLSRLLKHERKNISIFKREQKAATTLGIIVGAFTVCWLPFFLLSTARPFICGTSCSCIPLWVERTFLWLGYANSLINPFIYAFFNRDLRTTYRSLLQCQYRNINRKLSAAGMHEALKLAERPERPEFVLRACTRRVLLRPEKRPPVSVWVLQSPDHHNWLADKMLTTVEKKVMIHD

[8] = molecular target: 5-hydroxytryptamine receptor 2A (Homo sapiens, UniProt P28223)
Sequence of 5-hydroxytryptamine receptor 2A (P28223 whole entry): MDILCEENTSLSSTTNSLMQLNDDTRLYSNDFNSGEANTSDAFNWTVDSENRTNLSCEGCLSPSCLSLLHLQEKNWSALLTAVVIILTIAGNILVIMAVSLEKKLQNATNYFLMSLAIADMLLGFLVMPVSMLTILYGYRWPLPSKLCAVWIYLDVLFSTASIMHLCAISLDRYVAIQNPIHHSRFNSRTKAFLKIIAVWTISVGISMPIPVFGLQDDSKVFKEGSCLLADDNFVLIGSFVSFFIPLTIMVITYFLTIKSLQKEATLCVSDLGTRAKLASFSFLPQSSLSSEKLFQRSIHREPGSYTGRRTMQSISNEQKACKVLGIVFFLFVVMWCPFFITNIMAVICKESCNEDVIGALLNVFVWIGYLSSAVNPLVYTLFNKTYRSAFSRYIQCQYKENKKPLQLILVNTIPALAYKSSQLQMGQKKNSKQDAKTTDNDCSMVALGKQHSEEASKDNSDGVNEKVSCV

[9] = molecular target: 5-hydroxytryptamine receptor 2B (Homo sapiens, UniProt P41595)
Sequence of 5-hydroxytryptamine receptor 2B (P41595 whole entry): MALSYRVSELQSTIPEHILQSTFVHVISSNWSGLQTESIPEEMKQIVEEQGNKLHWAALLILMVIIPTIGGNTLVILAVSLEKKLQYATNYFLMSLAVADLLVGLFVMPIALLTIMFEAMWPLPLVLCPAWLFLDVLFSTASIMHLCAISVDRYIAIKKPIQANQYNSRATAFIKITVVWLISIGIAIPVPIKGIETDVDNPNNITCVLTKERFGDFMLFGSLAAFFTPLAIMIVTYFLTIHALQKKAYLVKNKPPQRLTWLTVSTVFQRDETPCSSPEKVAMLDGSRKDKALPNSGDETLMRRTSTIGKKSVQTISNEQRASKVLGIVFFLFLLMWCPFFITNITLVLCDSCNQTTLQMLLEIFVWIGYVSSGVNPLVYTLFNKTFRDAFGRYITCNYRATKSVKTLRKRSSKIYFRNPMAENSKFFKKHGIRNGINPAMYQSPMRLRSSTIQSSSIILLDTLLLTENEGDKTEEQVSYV

D(2) dopamine receptor = D(2) dopamine receptor (Rattus norvegicus, UniProt P61169)
Sequence of D(2) dopamine receptor (P61169 whole entry): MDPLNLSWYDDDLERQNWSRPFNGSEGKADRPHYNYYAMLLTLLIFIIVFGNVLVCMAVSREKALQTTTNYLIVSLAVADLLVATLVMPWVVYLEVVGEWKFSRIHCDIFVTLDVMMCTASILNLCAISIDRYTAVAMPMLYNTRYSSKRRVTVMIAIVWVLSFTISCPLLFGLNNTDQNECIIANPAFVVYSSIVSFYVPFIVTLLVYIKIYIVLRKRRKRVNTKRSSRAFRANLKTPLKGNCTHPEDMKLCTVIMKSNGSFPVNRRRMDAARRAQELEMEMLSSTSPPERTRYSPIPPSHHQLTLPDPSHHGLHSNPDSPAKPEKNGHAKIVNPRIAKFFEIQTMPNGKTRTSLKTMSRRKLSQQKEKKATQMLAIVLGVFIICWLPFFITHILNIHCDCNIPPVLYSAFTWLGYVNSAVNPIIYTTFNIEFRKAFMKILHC

[10] = molecular target: T4, 5-hydroxytryptamine receptor 2C (Homo sapiens, UniProt P28335)
T4 sequence (P28335 whole entry): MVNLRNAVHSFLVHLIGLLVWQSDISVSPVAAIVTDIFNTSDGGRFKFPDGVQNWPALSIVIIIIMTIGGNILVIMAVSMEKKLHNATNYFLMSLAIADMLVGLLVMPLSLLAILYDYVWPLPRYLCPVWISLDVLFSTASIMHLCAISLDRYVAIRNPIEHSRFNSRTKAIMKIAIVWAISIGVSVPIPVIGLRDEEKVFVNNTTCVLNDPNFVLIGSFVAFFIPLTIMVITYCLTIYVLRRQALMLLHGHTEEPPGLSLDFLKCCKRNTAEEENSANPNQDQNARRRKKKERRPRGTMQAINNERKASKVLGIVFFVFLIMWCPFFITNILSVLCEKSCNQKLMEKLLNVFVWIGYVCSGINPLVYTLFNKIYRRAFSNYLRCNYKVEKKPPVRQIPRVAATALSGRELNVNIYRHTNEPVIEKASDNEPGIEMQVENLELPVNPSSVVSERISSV

[11] = molecular target: T5, Muscarinic acetylcholine receptor M2 (Rattus norvegicus, UniProt P10980)
T5 sequence (P10980 whole entry): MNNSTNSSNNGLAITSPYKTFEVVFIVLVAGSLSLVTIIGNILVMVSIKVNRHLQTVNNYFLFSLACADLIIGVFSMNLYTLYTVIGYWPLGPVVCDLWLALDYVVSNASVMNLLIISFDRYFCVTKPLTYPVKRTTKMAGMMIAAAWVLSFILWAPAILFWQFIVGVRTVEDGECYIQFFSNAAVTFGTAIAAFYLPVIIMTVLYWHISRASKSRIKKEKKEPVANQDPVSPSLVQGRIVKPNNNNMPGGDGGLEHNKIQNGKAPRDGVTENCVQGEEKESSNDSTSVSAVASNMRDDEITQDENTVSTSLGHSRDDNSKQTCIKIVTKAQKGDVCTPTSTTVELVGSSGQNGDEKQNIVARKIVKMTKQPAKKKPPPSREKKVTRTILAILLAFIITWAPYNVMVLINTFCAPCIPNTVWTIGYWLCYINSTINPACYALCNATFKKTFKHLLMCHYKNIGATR

Sequence of 5-hydroxytryptamine receptor 1D (P28221 whole entry): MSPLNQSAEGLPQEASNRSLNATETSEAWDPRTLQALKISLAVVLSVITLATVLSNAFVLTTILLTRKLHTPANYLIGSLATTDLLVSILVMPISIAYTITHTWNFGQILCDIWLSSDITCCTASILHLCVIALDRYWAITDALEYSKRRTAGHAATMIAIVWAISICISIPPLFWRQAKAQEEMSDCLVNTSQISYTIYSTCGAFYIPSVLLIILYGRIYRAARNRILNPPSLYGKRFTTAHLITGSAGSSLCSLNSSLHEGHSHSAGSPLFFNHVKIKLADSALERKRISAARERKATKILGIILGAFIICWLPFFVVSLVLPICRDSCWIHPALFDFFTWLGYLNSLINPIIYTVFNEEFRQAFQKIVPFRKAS
Sequence of Histamine H1 receptor (P31390 whole entry): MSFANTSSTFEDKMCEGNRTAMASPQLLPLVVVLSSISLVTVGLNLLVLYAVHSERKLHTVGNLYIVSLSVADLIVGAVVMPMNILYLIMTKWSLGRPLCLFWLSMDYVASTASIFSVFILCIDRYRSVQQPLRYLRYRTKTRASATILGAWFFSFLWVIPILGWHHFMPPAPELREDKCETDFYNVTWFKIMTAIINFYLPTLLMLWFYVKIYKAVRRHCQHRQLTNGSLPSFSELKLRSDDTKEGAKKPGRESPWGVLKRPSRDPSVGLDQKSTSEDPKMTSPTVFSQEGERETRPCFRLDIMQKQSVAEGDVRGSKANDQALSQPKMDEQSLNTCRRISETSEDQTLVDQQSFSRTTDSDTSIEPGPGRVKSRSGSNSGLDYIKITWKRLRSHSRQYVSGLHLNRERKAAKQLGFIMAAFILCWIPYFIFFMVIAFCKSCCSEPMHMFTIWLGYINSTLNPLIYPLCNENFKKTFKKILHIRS

CN(C)C1CCc2[nH]c3ccc(NC(=O)c4ccc(F)cc4)cc3c2C1 (centres undefined) [NSC_5311097] was tested, and the Ki [1] was 0.575 µM, the Ki (Histamine H1 receptor) was greater than 10 µM and the Ki [2] was 3.69 µM. The Ki [3] was greater than 10 µM, the Ki [4] was 5.06 µM and the Ki [5] was 0.006 µM. The Ki [6] was greater than 10 µM, the Ki (D(1A) dopamine receptor) was greater than 10 µM and the Ki [7] was 4.85 µM. It also gave a Ki [8] of 3.94 µM, a Ki [9] of 1.69 µM and a Ki (D(2) dopamine receptor) greater than 10 µM. It also gave a Ki [10] of 3.5 µM and a Ki [11] greater than 10 µM.
